The nature of data set [1]: xn = mol fraction of the nth substance listed. The settings on record: 101 kPa, Liquid, x1 = 1.
For data set [2] the following is noted: 101 kPa, Liquid.
The nature of data set [3]: refractive index (Na D-line) (dimensionless). Conditions: 101.33 kPa, Liquid.

Numbers after ± are expanded uncertainties.

Experimental findings from the NIST ThermoML archive (doi:10.1007/s10765-006-0095-5) are described below.

For the compound `c1ccccc1` [benzene] + CCCCN(CCCC)CCCC, the mass density in data set [1] (298.15 K) came to 873.6 ± 2.5 kg/m3; in data set [1] (303.15 K), 870.8 ± 2.6 kg/m3; in data set [1] (308.15 K) it was 865.7 ± 2.7 kg/m3; in data set [1] (313.15 K) it was 861 ± 2.9 kg/m3; in data set [1] (318.15 K), 856.3 ± 3 kg/m3.
On to `c1ccccc1` [benzene] + CCN(CC)CC, for which the mass density in data set [1] (298.15 K) is 873.6 ± 2.5 kg/m3; in data set [1] (303.15 K), 870.8 ± 2.6 kg/m3; in data set [1] (308.15 K), 865.7 ± 2.7 kg/m3; in data set [1] (313.15 K), 861 ± 2.9 kg/m3; in data set [1] (318.15 K), 856.3 ± 3 kg/m3.
With `c1ccccc1` [benzene], the mass density in data set [2] (298.15 K) came out at 873.6 ± 2.5 kg/m3; in data set [2] (303.15 K), 870.8 ± 2.6 kg/m3; in data set [2] (308.15 K), 865.7 ± 2.7 kg/m3; in data set [2] (313.15 K), 861 ± 2.9 kg/m3; in data set [2] (318.15 K), 856.3 ± 3 kg/m3. The refractive index is on record as 1.4979 ± 0.0019 in data set [3] (298.15 K); 1.4962 ± 0.0019 in data set [3] (303.15 K); 1.4944 ± 0.0019 in data set [3] (308.15 K); 1.4929 ± 0.0019 in data set [3] (313.15 K); 1.4911 ± 0.0019 in data set [3] (318.15 K).
Turning to `CCCCN(CCCC)CCCC` [tributylamine], the mass density came out at 774.3 ± 2.1 kg/m3 in data set [2] (298.15 K); 770.8 ± 2.3 kg/m3 in data set [2] (303.15 K); 767.2 ± 2.4 kg/m3 in data set [2] (308.15 K); 763.6 ± 2.5 kg/m3 in data set [2] (313.15 K); 759.8 ± 2.6 kg/m3 in data set [2] (318.15 K). The refractive index in data set [3] (298.15 K) was determined as 1.4274 ± 0.0019; in data set [3] (303.15 K) it was 1.4259 ± 0.0019; in data set [3] (308.15 K), 1.4231 ± 0.0019; in data set [3] (313.15 K) it was 1.421 ± 0.0019; in data set [3] (318.15 K), 1.4188 ± 0.0019.
Turning to `CCN(CC)CC` [triethylamine], the mass density in data set [2] (298.15 K) was 723.4 ± 1.9 kg/m3; in data set [2] (303.15 K), 717.9 ± 2.1 kg/m3; in data set [2] (308.15 K), 712.9 ± 2.2 kg/m3; in data set [2] (313.15 K), 708.3 ± 2.3 kg/m3; in data set [2] (318.15 K) it was 701.6 ± 2.4 kg/m3. The refractive index in data set [3] (298.15 K) is 1.4011 ± 0.0019; in data set [3] (303.15 K) it was 1.3983 ± 0.0019; in data set [3] (308.15 K), 1.395 ± 0.0019; in data set [3] (313.15 K) it was 1.3928 ± 0.0019; in data set [3] (318.15 K), 1.3898 ± 0.0019.

For orientation: mass density means the mass of a sample divided by its volume. For orientation: refractive index means a measure of how strongly the sample bends light.
